# Test results: the supplement of paper PMC10307832
# Key:
# Assay in all cases: relative viability (nuclei count vs DMSO), 5 days (fraction); higher = more cells survive
# [1] = compound: O=C(c1cc(Cc2n[nH]c(=O)c3ccccc23)ccc1F)N1CCN(C(=O)C2CC2)CC1 [Olaparib] + Nc1nc2[nH]cc(CCc3ccc(C(=O)N[C@@H](CCC(=O)O)C(=O)O)cc3)c2c(=O)[nH]1 [Pemetrexed] (partner 0.2 µM)
# How it was run: (§1)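 A single step with final 0.05% Triton X-100, 1% formaldehyde and 1 ug/ml Hoechst fixed the cells and stained nuclei 5 days after treatment. Lung cancer cell lines in 1536-well plates had been treated by pin tool the day after seeding with one drug alone or a fixed anchor-drug dose plus five library-drug doses (not always all listed) in √10 steps, and nuclei were counted on 4× images. Relative viability is the ratio of nuclei in treated wells to nuclei in vehicle wells, taken as the median of duplicate plates.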
# [2] = compound: C[C@@H](Oc1cc(-c2cnn(C3CCNCC3)c2)cnc1N)c1c(Cl)ccc(F)c1Cl [Crizotinib] + CC(=O)c1c(C)c2cnc(Nc3ccc(N4CCNCC4)cn3)nc2n(C2CCCC2)c1=O [Palbociclib] (partner 0.5 µM)
# How it was run: as §1
# [3] = compound: C[C@@H](Oc1cc(-c2cnn(C3CCNCC3)c2)cnc1N)c1c(Cl)ccc(F)c1Cl [Crizotinib] + Nc1nc2[nH]cc(CCc3ccc(C(=O)N[C@@H](CCC(=O)O)C(=O)O)cc3)c2c(=O)[nH]1 [Pemetrexed] (partner 0.2 µM)
# How it was run: as §1
# [4] = compound: CC(C)C[C@H](NC(=O)[C@H](CCc1ccccc1)NC(=O)CN1CCOCC1)C(=O)N[C@@H](Cc1ccccc1)C(=O)N[C@@H](CC(C)C)C(=O)[C@@]1(C)CO1 [Carfilzomib] + Cc1nc(NC(=O)N2CCC[C@H]2C(N)=O)sc1-c1ccnc(C(C)(C)C(F)(F)F)c1 [Alpelisib] (partner 2 µM)
# How it was run: as §1
Cell Line,relative viability ([1]; first compound 0.08 µM),relative viability ([1]; first compound 0.253 µM),relative viability ([1]; first compound 2.53 µM),relative viability ([1]; first compound 8 µM),relative viability ([2]; first compound 0.01 µM),relative viability ([2]; first compound 0.03162 µM),relative viability ([2]; first compound 0.1 µM),relative viability ([2]; first compound 0.3162 µM),relative viability ([2]; first compound 1 µM),relative viability ([3]; first compound 0.01 µM),relative viability ([3]; first compound 0.03162 µM),relative viability ([3]; first compound 0.1 µM),relative viability ([3]; first compound 0.3162 µM),relative viability ([3]; first compound 1 µM),relative viability ([4]; first compound 0.001 µM),relative viability ([4]; first compound 0.003162 µM),relative viability ([4]; first compound 0.01 µM),relative viability ([4]; first compound 0.03162 µM),relative viability ([4]; first compound 0.1 µM)
HCC-44,0.658,0.619,0.716,0.748,0.939,0.964,1.01,0.94,0.969,0.603,0.648,0.689,0.593,0.665,0.786,0.785,0.861,0.705,0.134
HCC-78,0.885,0.886,0.906,0.908,0.431,0.537,0.545,–,0.513,0.88,0.865,0.889,0.855,–,0.327,0.45,0.362,0.287,0.157
HCC-366,0.165,0.195,0.206,0.271,0.381,0.429,0.347,–,0.449,0.166,0.154,0.167,–,0.202,0.402,0.518,0.413,0.285,0.0174
HCC-827,0.27,0.275,0.253,0.261,0.455,0.492,0.498,0.463,0.413,0.268,0.183,0.267,0.274,0.261,0.943,0.948,0.945,0.934,0.357
HOP-62,0.353,0.316,0.337,0.322,0.444,0.416,0.412,0.396,0.495,0.347,0.266,0.331,0.28,0.31,0.935,1.12,0.986,0.118,0.0839
IA-LM,–,–,–,–,–,–,–,–,–,–,–,–,–,–,0.747,0.821,0.633,0.151,0.0147
LC-2-ad,0.25,0.252,0.28,0.276,0.525,0.504,0.53,–,0.472,0.266,0.259,0.276,–,0.302,0.915,0.923,0.956,0.106,0.109
LCLC-97TM1,0.209,0.209,0.2,0.141,0.233,0.25,0.197,0.212,0.205,0.201,0.16,0.166,0.17,0.192,0.307,0.258,0.266,0.101,0.126
LCLC-103H,0.421,0.499,0.493,0.426,0.469,0.435,0.438,0.471,0.508,0.493,0.47,0.447,0.461,0.444,0.972,1.01,0.99,0.671,0.195
NCI-H522,1.05,0.931,0.833,1.04,0.998,1.18,0.827,1.04,1.02,1.04,0.968,0.828,1.04,0.999,–,–,–,–,–
NCI-H596,0.592,0.496,0.493,0.543,–,–,–,–,–,0.462,0.48,0.509,0.458,0.509,0.467,0.566,0.464,0.276,0.194
NCI-H727,–,–,–,–,0.703,0.621,0.655,0.639,0.595,–,–,–,–,–,0.683,0.542,0.655,0.421,0.0733
NCI-H1299,–,–,–,–,–,–,–,–,–,–,–,–,–,–,1.1,1.01,1.06,1.02,0.257
NCI-H1563,0.91,0.76,0.834,0.686,–,–,–,–,–,0.759,0.833,0.757,0.735,0.875,1.04,0.866,0.877,0.812,0.569
NCI-H1648,0.967,0.708,–,0.735,–,0.262,0.264,0.275,0.318,–,0.703,0.568,0.81,0.675,–,–,–,–,–
NCI-H1650,0.393,0.329,0.314,0.366,0.26,0.359,0.379,0.391,0.319,0.308,0.403,0.334,0.37,0.408,–,–,–,–,–
NCI-H1703,–,–,–,–,–,–,–,–,–,–,–,–,–,–,0.246,0.334,0.126,0.112,0.122
NCI-H2342,0.806,0.751,0.753,0.761,0.527,0.549,0.531,0.485,0.576,0.761,0.792,0.737,0.636,0.744,–,–,–,–,–
SW 900,0.502,0.461,0.456,0.457,0.544,0.453,0.497,0.546,0.514,0.505,0.437,0.493,0.476,0.466,–,–,–,–,–
